Broadly, the IC50 is the concentration needed to halve the response being measured.

This assay addresses T1, cyclin D1/cdk 4 enzyme (Homo sapiens, UniProt P11802).
T1 construct: made in house; host or cells: Sf9 insect cells, recombinant baculovirus
As to the kind of experiment: CDK4 ELISA kinase assay (phospho-Rb ser 795 detection). The conditions noted are these: In Vitro Enzyme Assay, cyclin D1/cdk 4, read-out: CDK4 IC50. Type of assay: biochemical. Put shortly: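 ELISA format: plate-bound GST-Rb, 200 μM ATP, Sf9 cyclin/CDK enzyme, 1 h at 30° C; then anti-pRb Ser795 primary overnight at 4° C, HRP secondary, TMB. IC50 after no-substrate background subtraction.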
Background: ELISA stands for enzyme-linked immunosorbent assay.

T1 sequence (P11802 whole entry, species assumed): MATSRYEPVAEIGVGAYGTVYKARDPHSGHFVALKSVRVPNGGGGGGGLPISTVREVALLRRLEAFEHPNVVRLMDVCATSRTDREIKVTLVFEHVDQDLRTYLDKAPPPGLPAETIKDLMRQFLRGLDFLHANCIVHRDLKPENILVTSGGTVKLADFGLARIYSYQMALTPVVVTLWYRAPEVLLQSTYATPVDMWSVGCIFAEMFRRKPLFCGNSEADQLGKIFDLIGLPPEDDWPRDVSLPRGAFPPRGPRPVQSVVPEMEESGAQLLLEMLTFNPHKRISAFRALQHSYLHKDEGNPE
T1 sequence (P24385 whole entry partner, species assumed): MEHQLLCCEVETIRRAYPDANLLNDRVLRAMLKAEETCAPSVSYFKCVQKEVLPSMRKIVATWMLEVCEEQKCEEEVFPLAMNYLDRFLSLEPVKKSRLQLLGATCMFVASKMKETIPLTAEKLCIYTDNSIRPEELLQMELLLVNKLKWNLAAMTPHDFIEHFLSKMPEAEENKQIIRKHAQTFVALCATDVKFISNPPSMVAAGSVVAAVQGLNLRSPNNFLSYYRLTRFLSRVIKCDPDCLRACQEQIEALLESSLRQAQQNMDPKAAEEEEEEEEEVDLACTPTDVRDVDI

On to `O=C1NC(=O)c2ccc(-c3ccccc3C(F)(F)F)cc2C1=CNCc1ccc(O)c(O)c1` [Example 774, 4-[(3,4-Dihydroxy-benzylamino)-methylene]-6-(2-trifluoromethyl-phenyl)-4H-isoquinoline-1,3-dione], for which the IC50 turned out to be 1.4 µM.
As for `CC(=O)c1ccccc1-c1ccc2c(c1)C(=CNCc1ccc(O)c(O)c1)C(=O)NC2=O` [Example 777, 6-(2-Acetyl-phenyl)-4-[(3,4-dihydroxy-benzylamino)-methylene]-4H-isoquinoline-1,3-dione], the figure is 3.78 µM.
For `Cc1ccccc1-c1ccc2c(c1)C(=CNCc1ccc(O)c(O)c1)C(=O)NC2=O` [Example 783, 4-[(3,4-Dihydroxy-benzylamino)-methylene]-6-o-tolyl-4H-isoquinoline-1,3-dione] the value was 1.23 µM; for `O=C1NC(=O)c2ccc(-c3ccc(-c4ccccc4)cc3)cc2C1=CNCc1ccc(O)c(O)c1` [Example 786, 6-Biphenyl-4-yl-4-[(3,4-dihydroxy-benzylamino)-methylene]-4H-isoquinoline-1,3-dione], 9.74 µM.
As to `O=C1NC(=O)c2ccc(-c3cccc(-c4ccccc4)c3)cc2C1=CNCc1ccc(O)c(O)c1` [Example 787, 6-Biphenyl-3-yl-4-[(3,4-dihydroxy-benzylamino)-methylene]-4H-isoquinoline-1,3-dione], the IC50 is 2.27 µM.
For `CC(C)c1ccc(-c2ccc3c(c2)C(=CNCc2ccc(O)c(O)c2)C(=O)NC3=O)cc1` [Example 790, 4-[(3,4-Dihydroxy-benzylamino)-methylene]-6-(4-isopropyl-phenyl)-4H-isoquinoline-1,3-dione] the value was 1.45 µM.
For `CC(C)c1cccc(-c2ccc3c(c2)C(=CNCc2ccc(O)c(O)c2)C(=O)NC3=O)c1` [Example 791, 4-[(3,4-Dihydroxy-benzylamino)-methylene]-6-(3-isopropyl-phenyl)-4H-isoquinoline-1,3-dione] the value was 4.99 µM; for `CSc1ccccc1-c1ccc2c(c1)C(=CNCc1ccc(O)c(O)c1)C(=O)NC2=O` [Example 793, 4-[(3,4-Dihydroxy-benzylamino)-methylene]-6-(2-methylsulfanyl-phenyl)-4H-isoquinoline-1,3-dione], 1.96 µM; for `CCN(CC)CCOC=Cc1ccc2c(c1)C(=CNc1ccc(N3CCN(C)CC3)cc1)C(=O)NC2=O` [Example 794, 6-[2-(2-Diethylamino-ethoxy)-vinyl]-4-{[4-(4-methyl-piperazin-1-yl)-phenylamino]-methylene}-4H-isoquinoline-1,3-dione], 41.7 µM.
For `CN1CCN(c2ccc(NC=C3C(=O)NC(=O)c4ccc(C=CCCC(=O)O)cc43)cc2)CC1` [Example 795, 5-(4-{[4-(4-Methyl-piperazin-1-yl)-phenylamino]-methylene}-1,3-dioxo-1,2,3,4-tetrahydro-isoquinolin-6-yl)-pent-4-enoic acid] the value was 24.2 µM.
Consider `CN1CCN(c2ccc(NC=C3C(=O)NC(=O)c4ccc(C=CCCO)cc43)cc2)CC1` [Example 796, 6-(4-Hydroxy-but-1-enyl)-4-{[4-(4-methyl-piperazin-1-yl)-phenylamino]-methylene}-4H-isoquinoline-1,3-dione], for which the IC50 was found to be 2.27 µM.
Turning to `CN1CCN(c2ccc(NC=C3C(=O)NC(=O)c4ccc(C=CCCCCO)cc43)cc2)CC1` [Example 798, 6-(6-Hydroxy-hex-1-enyl)-4-{[4-(4-methyl-piperazin-1-yl)-phenylamino]-methylene}-4H-isoquinoline-1,3-dione], the IC50 came out at 2.5 µM.
`CN1CCN(c2ccc(NC=C3C(=O)NC(=O)c4ccc(C=CCOCCO)cc43)cc2)CC1` [Example 799, 6-[3-(2-Hydroxy-ethoxy)-propenyl]-4-{[4-(4-methyl-piperazin-1-yl)-phenylamino]-methylene}-4H-isoquinoline-1,3-dione]: the IC50 stood at 6.37 µM.
As to `CN1CCN(c2ccc(NC=C3C(=O)NC(=O)c4ccc(C=CCN5CC(=O)NC5=O)cc43)cc2)CC1` [Example 800, 6-[3-(2,4-Dioxo-imidazolidin-1-yl)-propenyl]-4-{[4-(4-methyl-piperazin-1-yl)-phenylamino]-methylene}-4H-isoquinoline-1,3-dione], the IC50 is 5.04 µM.
As for `CN1CCN(c2ccc(NC=C3C(=O)NC(=O)c4ccc(C=CCc5ccccc5O)cc43)cc2)CC1` [Example 801, 6-[3-(2-Hydroxy-phenyl)-propenyl]-4-{[4-(4-methyl-piperazin-1-yl)-phenylamino]-methylene}-4H-isoquinoline-1,3-dione], the half-inhibitory concentration (IC50) worked out at 15.5 µM.
For `CC(C#N)=C(C)c1ccc2c(c1)C(=CNc1ccc(N3CCN(C)CC3)cc1)C(=O)NC2=O` [Example 802, 2-Methyl-3-(4-{[4-(4-methyl-piperazin-1-yl)-phenylamino]-methylene}-1,3-dioxo-1,2,3,4-tetrahydro-isoquinolin-6-yl)-but-2-enenitrile], the IC50 is 15 µM.
As for `CN1CCN(c2ccc(NC=C3C(=O)NC(=O)c4ccc(C=Cc5ccc(CC#N)cc5)cc43)cc2)CC1` [Example 803, {4-[2-(4-{[4-(4-Methyl-piperazin-1-yl)-phenylamino]-methylene}-1,3-dioxo-1,2,3,4-tetrahydro-isoquinolin-6-yl)-vinyl]-phenyl}-acetonitrile], the figure is 4.97 µM; as for `CN1CCN(c2ccc(NC=C3C(=O)NC(=O)c4ccc(-c5ccc6c(c5)OCO6)cc43)cc2)CC1` [Example 806, 6-Benzo[1,3]dioxol-5-yl-4-{[4-(4-methyl-piperazin-1-yl)-phenylamino]-methylene}-4H-isoquinoline-1,3-dione], 2.1 µM.
For `CN1CCN(c2ccc(NC=C3C(=O)NC(=O)c4ccc(-c5ccc(N(C)C)cc5)cc43)cc2)CC1` [Example 807, 6-(4-Dimethylamino-phenyl)-4-{[4-(4-methyl-piperazin-1-yl)-phenylamino]-methylene}-4H-isoquinoline-1,3-dione] the value was 14.5 µM; for `CN1CCN(c2ccc(NC=C3C(=O)NC(=O)c4ccc(-c5ccc(CCC(=O)O)cc5)cc43)cc2)CC1` [Example 809, 3-[4-(4-{[4-(4-Methyl-piperazin-1-yl)-phenylamino]-methylene}-1,3-dioxo-1,2,3,4-tetrahydro-isoquinolin-6-yl)-phenyl]-propionic acid], 13.8 µM; for `CN1CCN(c2ccc(NC=C3C(=O)NC(=O)c4ccc(-c5cccc(N)c5)cc43)cc2)CC1` [Example 810, 6-(3-Amino-phenyl)-4-{[4-(4-methyl-piperazin-1-yl)-phenylamino]-methylene}-4H-isoquinoline-1,3-dione], 2.76 µM.
For `CN1CCN(c2ccc(NC=C3C(=O)NC(=O)c4ccc(-c5ccc(Cl)cc5Cl)cc43)cc2)CC1` [Example 811, 6-(2,4-Dichloro-phenyl)-4-{[4-(4-methyl-piperazin-1-yl)-phenylamino]-methylene}-4H-isoquinoline-1,3-dione] the value was 22.3 µM; for `COc1ccc(-c2ccc3c(c2)C(=CNCc2ccc(O)c(O)c2)C(=O)NC3=O)c(OC)c1` [Example 814, 4-[(3,4-Dihydroxy-benzylamino)-methylene]-6-(2,4-dimethoxy-phenyl)-4H-isoquinoline-1,3-dione], 2.75 µM.
In the case of `COc1cc(-c2ccc3c(c2)C(=CNCc2ccc(O)c(O)c2)C(=O)NC3=O)cc(OC)c1OC` [Example 815, 4-[(3,4-Dihydroxy-benzylamino)-methylene]-6-(3,4,5-trimethoxy-phenyl)-4H-isoquinoline-1,3-dione], the IC50 worked out at 2.5 µM.
As for `CN1CCN(c2ccc(NC=C3C(=O)NC(=O)c4ccc(C=C5CCCC5)cc43)cc2)CC1` [Example 828, 6-Cyclopentylidenemethyl-4-{[4-(4-methyl-piperazin-1-yl)-phenylamino]-methylene}-4H-isoquinoline-1,3-dione], the figure is 4.4 µM; as for `CN1CCN(c2ccc(NC=C3C(=O)NC(=O)c4ccc(C=Cc5ccc([N+](=O)[O-])cc5)cc43)cc2)CC1` [Example 829, 4-{[4-(4-Methyl-piperazin-1-yl)-phenylamino]-methylene}-6-[2-(4-nitro-phenyl)-vinyl]-4H-isoquinoline-1,3-dione], 26.5 µM; as for `COc1ccc(NC=C2C(=O)NCc3cc(Br)ccc32)cc1O` [Example 862, 7-Bromo-4-[(3-hydroxy-4-methoxy-phenylamino)-methylene]-1,4-dihydro-2H-isoquinolin-3-one], 31 µM.

The values are drawn from patent US7713994B2 (Wyeth LLC, priority 2005, dated 2010).
